Data on 7 compounds can be found in patent US20260297134A1, “CYCLIC PEPTIDES AS PET IMAGING AGENTS OF GRANZYME B” (Merck Sharp & Dohme LLC, priority 2023, published 2026).

Each structure is given as a SMILES string. pIC50, pKd: −log10 of the molar value. Bridge positions count the residues as written; N and C are the ends. Square brackets hold non-standard residues; d marks the D form. Peptide text beside a SMILES is read from it. * marks the point of attachment. X1 = O=C(O)CN1CCN(CC(=O)O)CC(Cc2ccc(NC(=S)*)cc2)N(CC(=O)O)CC1; NMeF = CN[C@@H](Cc1ccccc1)C(=O)O; NMeA = CN[C@@H](C)C(=O)O

Series [1] concerns the target human Granzyme B (hGranzyme B) (Homo sapiens, UniProt P10144). Put plainly: Surface Plasmon Resonance (SPR) binding to human Granzyme B. The note with it: Table 8, 25° C. Here is the method:
All reagents and solvents were purchased from commercial sources and used “as is” unless otherwise noted. Reaction progress and synthetic intermediate analysis were assessed by LCMS (UV detection with ESI, APCI, or other mass detection) when applicable using a MeCN/water gradient with either TFA, formic acid, or NH4HCO3 modifier. Silica gel and reverse-phase flash column chromatography were conducted with commercially available pre-packed columns. Reverse-phase preparative HPLC purification was performed on preparative HPLC instruments with UV and MS detection using a MeCN/water gradient with either TFA, formic acid, or NH4OH modifier. Unless otherwise noted, all KD data presented in tables refers to the surface plasmon resonance assay that is described in the Biological Assay section.
The kinetics of test peptide binding to human Granzyme B (hGranzyme B) was determined by SPR. All experiments were performed at 25° C. using the Biacore 8k+ instrument (Cytiva, Marlborough, MA). The Biacore 8k+ Insight Evaluation Software Version 3.0 was used to fit the data with a 1:1 binding model to determine the association rate constant ka (M^−1s^−1, where “M” equals molar and “s” equals seconds) and the dissociation rate constant kd (s^−1). These rate constants were used to calculate the equilibrium dissociation constant, KD (M)=kd/ka. To measure the binding kinetics of peptides of interest, surfaces were prepared by a capture method to a Series S Streptavidin (SA) chip using a 1×HBS-EP+ running buffer (Cytiva). hGranzyme B was diluted to 10 μg/mL in 1×HBS-EP+ and flowed over spot 2 of each flow cell on the chip at a flow rate of 10 μl/min for 20 s to achieve a level of capture of ~1100 RU. An unmodified spot 1 of each flow cell was used as a matrix binding control or reference surface. Binding kinetics were measured using single cycle kinetics at 25° C. by injecting 5 concentrations with 3-fold serial dilutions of test peptides from […] to 1 μM. Compound dilutions were performed manually in a running buffer containing 1×HBS-EP+(Cytiva), and a final concentration of 2% DMSO. The interaction analyses over hGranzyme B, were performed using a 120 s association time and a 900 s dissociation time. All experiments were conducted at a flow rate of […] with a data collection rate of 10 Hz.
Peptide dilution series included 2 zero concentration points (no compound) which were averaged and subtracted from the peptide concentration injection as DMSO control responses. Binding data acquired from the reference surface (matrix binding control) were subtracted from the binding data for hGranzyme B surface on the chip to determine specific binding. Next, the association phase data were solvent corrected to account for any signal fluctuation throughout the experiment due to subtle DMSO concentration differences. Corrected response data were analyzed using the Biacore 8k+ Evaluation Software Version 3.0 according to the manufacturer. SPR data for representative compounds of the disclosure are found in Table 8.

Series [2] deals with Human granzyme B (Homo sapiens, UniProt P10144). As to the kind of experiment: Granzyme B Biochemical Inhibition Assay. The note with it: granzyme B 8 nM; 30 min preincubation, room temperature. The procedure: Compounds to be tested as inhibitors were manually prepared in a 2-fold serial dilutions in DMSO, spanning 200 μM to 0.39 μM in a Labcyte Echo qualified low dead volume 384-well plate. Then an ECHO acoustic liquid handler was used to dispense 125 nL of each compound from 384-well plate into a PerkinElmer Proxiplate-384 Plus F assay plate. For the positive control of inhibitor, (S)-3-((3S,6S)-3-((2S,3S)-2-acetamido-3-methylpentanamido)-4-oxo-1,2,3,4,6,7-hexahydroazepino[3,2,1-hi]indole-6-carboxamido)-4-oxobutanoic acid (see C. A. Willoughby et al./Bioorg. Med. Chem. Lett. 12 (2002) 2197-2200 2199) was used at 2 μM assay concentration. For no inhibition control, DMSO was used. Each compound was run in duplicate.
Sequence of Human granzyme B (P10144 21-247): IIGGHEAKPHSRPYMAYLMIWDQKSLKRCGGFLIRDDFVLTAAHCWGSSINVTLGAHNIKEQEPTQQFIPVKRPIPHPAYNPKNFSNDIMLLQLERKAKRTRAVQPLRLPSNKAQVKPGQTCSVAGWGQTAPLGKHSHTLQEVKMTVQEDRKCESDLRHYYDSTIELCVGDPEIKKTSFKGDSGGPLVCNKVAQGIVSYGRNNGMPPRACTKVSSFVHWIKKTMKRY
Once the compounds were dispensed in the plates, enzyme mix and substrate mix were prepared. […] Subsequently, 3.125 μL of substrate mix were added to each well using the BioRaptr, reaching a final assay volume of 12.5 μL. and the plate was monitored using a Pherastar FS by 1 read per minute for 30 minutes in fluorescence mode, excitation wavelength is 400 nm and emission wavelength is 510 nm.
The data analysis was performed first in excel, where the slopes of the measured fluorescence from each sample were determined using MARS software from BMG LABTECH. […]

Series [3] is described as follows: Dynamic PET/CT scan in healthy rhesus monkey, biodistribution and clearance. It counts as in vivo, male rhesus monkey. To be noted: i.v. The procedure:
Healthy non-human primate: A 3 h dynamic PET/CT scan was performed in a healthy male rhesus monkey to determine whole body biodistribution and clearance properties in an additional species. Approximately 6 mCi of ^18F-labeled anti-granzyme-B peptide was intravenously injected in the animal. Attenuation correction was performed using low-dose CT scan. Regions of interests (ROI) were manually drawn over tissues of interest to determine mean standardized uptake value (SUVmean).

Sequence of human Granzyme B (hGranzyme B) (P10144 21-247): as above

As usually defined, the pKd is −log10 of the Kd, conventionally taken in molar units. The term pIC50 denotes −log10 of the IC50, conventionally taken in molar units. A high value points to a small IC50. Regarding `CC(C)[C@@H]1NC(=O)[C@H](CC(=O)O)NC(=O)[C@H](Cc2ccc(O)cc2)NC(=O)[C@H](Cc2ccc(O)cc2)NC(=O)[C@H](Cc2ccccc2)N(C)C(=O)[C@H](Cc2ccccc2)N(C)C(=O)[C@H](Cc2ccccc2)NC(=O)CSC[C@@H](C(=O)NCC(N)=O)NC(=O)[C@H](Cc2c[nH]cn2)NC(=O)[C@H](Cc2ccccc2)N(C)C(=O)[C@H](Cc2ccc(O)cc2)NC(=O)[C@H](C(C)C)NC(=O)[C@H](CC(=O)O)NC(=O)[C@H](C(C)C)NC(=O)[C@H](CC(=O)O)NC1=O` [Compound 1a, *F.NMeF.NMeF.Y.Y.D.V.D.V.D.V.Y.NMeF.H.*C.G-NH2] ({CH2CO}-F[NMeF][NMeF]YYDVDVDVY[NMeF]HCG-NH2; thioether N-15), the pKd in series [1] is 9.30. The pIC50 in series [2] is 6.95.

Regarding `CC(C)[C@@H]1NC(=O)[C@H](CC(=O)O)NC(=O)[C@H](Cc2ccc(O)cc2)NC(=O)[C@H](Cc2ccc(O)cc2)NC(=O)[C@H](Cc2ccccc2)N(C)C(=O)[C@H](Cc2ccccc2)N(C)C(=O)[C@H](Cc2ccccc2)NC(=O)CSC[C@@H](C(=O)NCC(=O)NCC(=O)N[C@@H](CCCCNC(=S)Nc2ccc(CC3CN(CC(=O)O)CCN(CC(=O)O)CCN3CC(=O)O)cc2)C(N)=O)NC(=O)[C@H](Cc2c[nH]cn2)NC(=O)[C@H](Cc2ccccc2)N(C)C(=O)[C@H](Cc2ccc(O)cc2)NC(=O)[C@H](C(C)C)NC(=O)[C@H](CC(=O)O)NC(=O)[C@H](C(C)C)NC(=O)[C@H](CC(=O)O)NC1=O` (some centres unmarked) [Compound 6a, *F.NMeF.NMeF.Y.Y.D.V.D.V.D.V.Y.NMeF.H.*C.G.G.K(^18F-AlF-NOTA)-NH2] ({CH2CO}-F[NMeF][NMeF]YYDVDVDVY[NMeF]HCGGK(X1)-NH2; thioether N-15), in series [3] (PET images), the excretion route result is “primarily excreted through renal route”. Also, the blood pool clearance result in series [3] (approximately 6 mCi, PET) is on record as “rapid blood pool clearance”. Further, in series [3] (quantitative analyses of PET images), the liver uptake duration result is given as “prolonged liver uptake”. The “uptake in liver and kidneys” value in series [3] (within first 20 minutes of injection) is “high uptake in liver and kidneys within first 20 minutes of injection”.

`CC(C)[C@@H]1NC(=O)[C@H](CC(=O)O)NC(=O)[C@H](C(C)C)NC(=O)[C@H](CC(=O)O)NC(=O)[C@H](Cc2ccc(O)cc2)NC(=O)[C@H](Cc2ccc(O)cc2)NC(=O)[C@H](Cc2ccccc2)N(C)C(=O)[C@H](Cc2ccccc2)N(C)C(=O)[C@H](Cc2ccccc2)NC(=O)CSC[C@@H](C(=O)NCC(N)=O)NC(=O)[C@H](Cc2c[nH]cn2)NC(=O)[C@H](Cc2ccccc2)N(C)C(=O)[C@H](Cc2ccc(O)cc2)NC(=O)[C@H](C)NC(=O)[C@H](CC(=O)O)NC1=O` [Compound 17a, *F.NMeF.NMeF.Y.Y.D.V.D.V.D.A.Y.NMeF.H.*C.G-NH2] ({CH2CO}-F[NMeF][NMeF]YYDVDVDAY[NMeF]HCG-NH2; thioether N-15) had a pKd in series [1] of 7.97.

In the case of `CC(C)[C@@H]1NC(=O)[C@H](CC(=O)O)NC(=O)[C@H](Cc2ccc(O)cc2)NC(=O)[C@H](Cc2ccc(O)cc2)NC(=O)[C@H](Cc2ccccc2)N(C)C(=O)[C@H](Cc2ccccc2)N(C)C(=O)[C@H](Cc2ccccc2)NC(=O)CSC[C@@H](C(=O)NCC(=O)NCC(=O)N[C@@H](CCCCN)C(N)=O)NC(=O)[C@H](Cc2c[nH]cn2)NC(=O)[C@H](Cc2ccccc2)N(C)C(=O)[C@H](Cc2ccc(O)cc2)NC(=O)[C@H](C(C)C)NC(=O)[C@H](CC(=O)O)NC(=O)[C@H](C(C)C)NC(=O)[C@H](CC(=O)O)NC1=O` [Compound 2a, *F.NMeF.NMeF.Y.Y.D.V.D.V.D.V.Y.NMeF.H.*C.G.G.K-NH2] ({CH2CO}-F[NMeF][NMeF]YYDVDVDVY[NMeF]HCGGK-NH2; thioether N-15), the negative-log Kd (pKd) in series [1] was 8.96.

With `CC(C)[C@@H]1NC(=O)[C@H](CC(=O)O)NC(=O)[C@H](Cc2ccc(O)cc2)NC(=O)[C@H](C)NC(=O)[C@H](Cc2ccccc2)N(C)C(=O)[C@H](Cc2ccccc2)N(C)C(=O)[C@H](Cc2ccccc2)NC(=O)CSC[C@@H](C(=O)NCC(N)=O)NC(=O)[C@H](Cc2c[nH]cn2)NC(=O)[C@H](Cc2ccccc2)N(C)C(=O)[C@H](Cc2ccc(O)cc2)NC(=O)[C@H](C(C)C)NC(=O)[C@H](CC(=O)O)NC(=O)[C@H](C(C)C)NC(=O)[C@H](CC(=O)O)NC1=O` [Compound 23a, *F.NMeF.NMeF.A.Y.D.V.D.V.D.V.Y.NMeF.H.*C.G-NH2] ({CH2CO}-F[NMeF][NMeF]AYDVDVDVY[NMeF]HCG-NH2; thioether N-15), in series [1], the pKd is 6.12.

In turn, `CC(C)[C@@H]1NC(=O)[C@H](CC(=O)O)NC(=O)[C@H](Cc2ccc(O)cc2)NC(=O)[C@H](Cc2ccc(O)cc2)NC(=O)[C@H](Cc2ccccc2)N(C)C(=O)[C@H](C)N(C)C(=O)[C@H](Cc2ccccc2)NC(=O)CSC[C@@H](C(=O)NCC(N)=O)NC(=O)[C@H](Cc2c[nH]cn2)NC(=O)[C@H](Cc2ccccc2)N(C)C(=O)[C@H](Cc2ccc(O)cc2)NC(=O)[C@H](C(C)C)NC(=O)[C@H](CC(=O)O)NC(=O)[C@H](C(C)C)NC(=O)[C@H](CC(=O)O)NC1=O` [Compound 25a, *F.NMeA.NMeF.Y.Y.D.V.D.V.D.V.Y.NMeF.H.*C.G-NH2] ({CH2CO}-F[NMeA][NMeF]YYDVDVDVY[NMeF]HCG-NH2; thioether N-15) showed a negative logarithm of the Kd (pKd) in series [1] of 6.70.

In series [1], `CC(C)[C@@H]1NC(=O)[C@H](CC(=O)O)NC(=O)[C@H](C(C)C)NC(=O)[C@H](CC(=O)O)NC(=O)[C@H](C(C)C)NC(=O)[C@H](CC(=O)O)NC(=O)[C@H](Cc2ccc(O)cc2)NC(=O)[C@H](Cc2ccc(O)cc2)NC(=O)[C@H](Cc2ccccc2)N(C)C(=O)[C@H](Cc2ccccc2)N(C)C(=O)[C@H](Cc2ccccc2)NC(=O)CSC[C@@H](C(=O)NCC(N)=O)NC(=O)[C@H](Cc2c[nH]cn2)NC(=O)[C@H](Cc2ccccc2)N(C)C(=O)[C@H](C)NC1=O` [Compound 21a, *F.NMeF.NMeF.Y.Y.D.V.D.V.D.V.A.NMeF.H.*C.G-NH2] ({CH2CO}-F[NMeF][NMeF]YYDVDVDVA[NMeF]HCG-NH2; thioether N-15) gave a pKd of 6.34.
